target: T1, EP4 (Homo sapiens (Human), UniProt P35408); assay: CRE-PLAP reporter assay; format: cell-based; details: SE302 (HEK/293 clone) cells with endogenous EP4, stimulated with 3 ng/mL PGE2 overnight
Method: Cells were maintained in DMEM/F12 (50:50) (MediaTech) supplemented with 10% FBS (Tissue Culture Biologicals) plus penicillin/streptomycin. When used for assays, cells were plated in a 96-well plate at 2×10^4 cells/100 μL/well in serum-free assay medium (DMEM/F12 supplemented with 0.1% BSA plus penicillin/streptomycin) and incubated for 4-6 h.
Exemplary compounds of the present invention were assayed according to the methods set forth above in the CRE-PLAP reporter assay described above.

T1 sequence (P35408 whole entry): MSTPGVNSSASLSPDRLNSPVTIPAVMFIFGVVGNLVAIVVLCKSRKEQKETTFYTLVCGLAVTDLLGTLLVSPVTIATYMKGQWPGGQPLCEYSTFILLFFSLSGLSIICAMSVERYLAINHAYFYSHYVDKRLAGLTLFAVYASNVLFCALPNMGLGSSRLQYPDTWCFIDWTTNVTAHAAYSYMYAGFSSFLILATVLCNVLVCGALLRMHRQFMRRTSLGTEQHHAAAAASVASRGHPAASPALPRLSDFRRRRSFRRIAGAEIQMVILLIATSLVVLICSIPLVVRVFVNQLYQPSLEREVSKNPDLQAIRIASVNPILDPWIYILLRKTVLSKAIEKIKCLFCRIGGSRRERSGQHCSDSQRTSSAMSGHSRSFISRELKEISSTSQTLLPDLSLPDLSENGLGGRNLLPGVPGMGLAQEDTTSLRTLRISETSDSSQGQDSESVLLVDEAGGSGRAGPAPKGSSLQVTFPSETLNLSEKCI

Structure (SMILES)	IC50 [nM]
COc1cc(OC)cc(Oc2c(C(=O)N[C@@H](C)c3ccc(C(=O)O)cc3)c(C)nn2C)c1 [ER-886035-00]	3660
Cc1nn(C)c(Oc2cc(F)ccc2F)c1C(=O)N[C@@H](C)c1ccc(C(=O)O)cc1 [ER-885720-00]	2220
Cc1nn(C)c(Oc2cccc(F)c2F)c1C(=O)N[C@@H](C)c1ccc(C(=O)O)cc1 [ER-885719-00]	2670
Cc1nn(C)c(Oc2cc(F)cc(Cl)c2)c1C(=O)N[C@@H](C)c1ccc(C(=O)O)cc1 [ER-886024-00]	637
Cc1nn(C)c(Oc2cccc(F)c2)c1C(=O)N[C@@H](C)c1ccc(C(=O)O)cc1 [ER-885717-00]	974
C[C@H](NC(=O)c1c(C(F)F)nn(C)c1Oc1cccc(Cl)c1)c1ccc(C(=O)O)cc1 [ER-886045-00]	18
Cc1cccc(Oc2c(C(=O)N[C@@H](C)c3ccc(C(=O)O)cc3)c(C)nn2C)c1 [ER-886032-00]	356
Cn1nc(C(F)(F)F)c(C(=O)NC2(c3ccc(C(=O)O)cc3)CC2)c1Oc1cccc(C(F)(F)F)c1 [ER-885741-00]	13
Cc1nn(C)c(Oc2ccc(Cl)cc2)c1C(=O)N[C@@H](C)c1ccc(C(=O)O)cc1 [ER-880663-00]	619
C[C@H](NC(=O)c1c(C(F)(F)F)nn(C)c1Oc1cccc(Cl)c1)c1ccc(C(=O)O)cc1 [ER-885289-00]	45
Cc1nn(C)c(Oc2cccc(Cl)c2Cl)c1C(=O)N[C@@H](C)c1ccc(C(=O)O)cc1 [ER-886022-00]	719
Cc1nn(C)c(Oc2ccc(Cl)c(Cl)c2)c1C(=O)N[C@@H](C)c1ccc(C(=O)O)cc1 [ER-885716-00]	92
Cc1nn(C)c(Oc2cc(Cl)cc(Cl)c2)c1C(=O)N[C@@H](C)c1ccc(C(=O)O)cc1 [ER-885721-00]	846
Cc1nn(C)c(Oc2cccc(C(F)(F)F)c2)c1C(=O)NC1(c2ccc(C(=O)O)cc2)CC1 [ER-885740-00]	12
Cc1nn(C)c(Oc2cccc(OC(F)(F)F)c2)c1C(=O)N[C@@H](C)c1ccc(C(=O)O)cc1 [ER-886061-00]	89
Cc1nn(C)c(Oc2cccc(C(F)(F)F)c2)c1C(=O)N[C@@H](C)c1ccc(C(=O)O)cc1 [ER-885290-00]	18
Cc1nn(C)c(Oc2ccc(C(F)(F)F)cc2)c1C(=O)N[C@@H](C)c1ccc(C(=O)O)cc1 [ER-885311-00]	273
Cc1nn(C)c(Oc2ccc(F)cc2)c1C(=O)N[C@@H](C)c1ccc(C(=O)O)cc1 [ER-885302-00]	261
Cc1nn(C)c(Oc2cc(F)ccc2Cl)c1C(=O)N[C@@H](C)c1ccc(C(=O)O)cc1 [ER-886025-00]	4910
Cn1nc(C(F)(F)F)c(C(=O)NC2(c3ccc(C(=O)O)cc3)CC2)c1Oc1cccc(Cl)c1 [ER-885743-00]	38
Cc1nn(C)c(Oc2cccc(Cl)c2)c1C(=O)N[C@@H](C)c1ccc(C(=O)O)cc1 [ER-885744-00]	168
Cc1ccc(Oc2c(C(=O)N[C@@H](C)c3ccc(C(=O)O)cc3)c(C)nn2C)cc1 [ER-885749-00]	451
Cc1nn(C)c(Oc2ccc(F)c(F)c2)c1C(=O)N[C@@H](C)c1ccc(C(=O)O)cc1 [ER-885718-00]	467
C[C@H](NC(=O)c1c(C(F)(F)F)nn(C)c1Oc1cccc(C(F)(F)F)c1)c1ccc(C(=O)O)cc1 [ER-885291-00]	27
Cc1cc(C)cc(Oc2c(C(=O)N[C@@H](C)c3ccc(C(=O)O)cc3)c(C)nn2C)c1 [ER-886033-00]	2120

Other lines, results leading:

IC50 [nM]	Structure (SMILES)
23	C[C@H](NC(=O)c1c(C(F)F)nn(C)c1Oc1ccc(C(F)(F)F)cc1)c1ccc(C(=O)O)cc1 [ER-888367-00]
31	C[C@H](NC(=O)c1c(C(F)F)nn(C)c1Oc1ccc(Cl)c(Cl)c1)c1ccc(C(=O)O)cc1 [ER-888024-00]
89	C[C@H](NC(=O)c1c(C(F)(F)F)nn(C)c1Oc1ccc(Cl)cc1)c1ccc(C(=O)O)cc1 [ER-888369-00]
58	Cc1nn(C)c(Oc2cccc(OC(F)F)c2)c1C(=O)N[C@@H](C)c1ccc(C(=O)O)cc1 [ER-886080-00]
88	C[C@H](NC(=O)c1c(C(F)(F)F)nn(C)c1Oc1cccc(OC(F)F)c1)c1ccc(C(=O)O)cc1 [ER-886082-00]
109	C[C@H](NC(=O)c1c(C(F)(F)F)nn(C)c1Oc1ccc(F)c(F)c1)c1ccc(C(=O)O)cc1 [ER-886073-00]
28	C[C@H](NC(=O)c1c(C(F)(F)F)nn(C)c1Oc1ccc(C(F)(F)F)cc1)c1ccc(C(=O)O)cc1 [ER-888365-00]
219	Cc1nn(C)c(Oc2cccc(C(F)F)c2)c1C(=O)N[C@@H](C)c1ccc(C(=O)O)cc1 [ER-887495-00]
9	Cn1nc(C(F)F)c(C(=O)NC2(c3ccc(C(=O)O)cc3)CC2)c1Oc1cccc(C(F)(F)F)c1 [ER-886078-00]
35	Cn1nc(C(F)F)c(C(=O)NC2(c3ccc(C(=O)O)cc3)CC2)c1Oc1ccc(Cl)cc1 [ER-888370-00]
18	Cn1nc(C(F)(F)F)c(C(=O)NC2(c3ccc(C(=O)O)cc3)CC2)c1Oc1ccc(Cl)cc1 [ER-888368-00]
132	C[C@H](NC(=O)c1c(C(F)(F)F)nn(C)c1Oc1cccc(F)c1)c1ccc(C(=O)O)cc1 [ER-886072-00]
157	Cn1nc(C(F)F)c(C(=O)NC2(c3ccc(C(=O)O)cc3)CC2)c1Oc1cccc(Cl)c1 [ER-888355-00]
10	C[C@H](NC(=O)c1c(C(F)(F)F)nn(C)c1Oc1ccc(Cl)c(Cl)c1)c1ccc(C(=O)O)cc1 [ER-886074-00]
15	Cn1nc(C(F)F)c(C(=O)NC2(c3ccc(C(=O)O)cc3)CC2)c1Oc1ccc(C(F)(F)F)cc1 [ER-888366-00]
17	Cn1nc(C(F)F)c(C(=O)NC2(c3ccc(C(=O)O)cc3)CC2)c1Oc1ccc(Cl)c(Cl)c1 [ER-888348-00]
8	Cn1nc(C(F)(F)F)c(C(=O)NC2(c3ccc(C(=O)O)cc3)CC2)c1Oc1ccc(Cl)c(Cl)c1 [ER-888363-00]
85	Cc1nn(C)c(Oc2cccc(Cl)c2)c1C(=O)NC1(c2ccc(C(=O)O)cc2)CC1 [ER-886077-00]
12	Cn1nc(C(F)(F)F)c(C(=O)NC2(c3ccc(C(=O)O)cc3)CC2)c1Oc1ccc(C(F)(F)F)cc1 [ER-888364-00]
187	C[C@H](NC(=O)c1c(C(F)(F)F)nn(C)c1Oc1cccc(C(F)F)c1)c1ccc(C(=O)O)cc1 [ER-887995-00]
89	C[C@H](NC(=O)c1c(C(F)F)nn(C)c1Oc1ccc(Cl)cc1)c1ccc(C(=O)O)cc1 [ER-888371-00]
51	C[C@H](NC(=O)c1c(C(F)F)nn(C)c1Oc1cccc(C(F)F)c1)c1ccc(C(=O)O)cc1 [ER-887480-00]
17	C[C@H](NC(=O)c1c(C(F)F)nn(C)c1Oc1cccc(OC(F)F)c1)c1ccc(C(=O)O)cc1 [ER-886090-00]

target: T1, EP4; assay: Radioligand EP4 receptor binding assay; details: Chem-1 cell membranes overexpressing human EP4, [3H]-PGE2 displacement
Method: The radioligand EP4 binding assay was performed using ChemiScreen recombinant human EP4 receptor membrane preparations from Millipore, according to manufacturer's instructions. Briefly, membranes prepared from Chem-1 cells overexpressing human EP4 cDNA (Millipore) were mixed with 1.8 nmol.L^−1 [^3H]-PGE2 and 5 μmol.L^−1 unlabelled PGE2 in the presence or absence of various concentrations of testing compounds in binding buffer (50 mmol.L^−1 HEPES, pH 7.4, 5 mmol.L^−1 MgCl2, 1 mmol.L^−1 CaCl2, 0.2% BSA) in a nonbinding 96-well plate, and incubated for 1-2 h at room temperature. Prior to filtration, a GF/C 96-well filter plate was coated with 0.33% polyethyleneimine for 30 min, then washed with 50 mmol.L^−1 HEPES, pH 7.4, 0.5% BSA. Binding reactions were transferred to the filter plate, and washed 3 times with Wash Buffer (1 mL per well per wash). The plate was dried and radioactivity counted.

Structure (SMILES)	Ki [nM]
C[C@H](NC(=O)c1c(C(F)F)nn(C)c1Oc1cccc(Cl)c1)c1ccc(C(=O)O)cc1 [ER-886045-00]	50
Cn1nc(C(F)(F)F)c(C(=O)NC2(c3ccc(C(=O)O)cc3)CC2)c1Oc1cccc(C(F)(F)F)c1 [ER-885741-00]	16
Cc1nn(C)c(Oc2cccc(C(F)(F)F)c2)c1C(=O)NC1(c2ccc(C(=O)O)cc2)CC1 [ER-885740-00]	43
Cc1nn(C)c(Oc2cccc(C(F)(F)F)c2)c1C(=O)N[C@@H](C)c1ccc(C(=O)O)cc1 [ER-885290-00]	14

Results, then the compound that gave them:

Ki [nM]	Structure (SMILES)
8	Cn1nc(C(F)F)c(C(=O)NC2(c3ccc(C(=O)O)cc3)CC2)c1Oc1cccc(C(F)(F)F)c1 [ER-886078-00]
13	C[C@H](NC(=O)c1c(C(F)(F)F)nn(C)c1Oc1ccc(Cl)c(Cl)c1)c1ccc(C(=O)O)cc1 [ER-886074-00]
26	C[C@H](NC(=O)c1c(C(F)F)nn(C)c1Oc1cccc(C(F)F)c1)c1ccc(C(=O)O)cc1 [ER-887480-00]
10	C[C@H](NC(=O)c1c(C(F)F)nn(C)c1Oc1cccc(OC(F)F)c1)c1ccc(C(=O)O)cc1 [ER-886090-00]

— patent US8686018B2, “Pharmaceutical composition” (Eisai R&D Management Co., Ltd., priority 2010, dated 2014)
